The text below walks through data of patent US5407942A, “Biphenylmethyl-substituted pyridones” (Bayer Aktiengesellschaft, priority 1992, dated 1995).

≈ marks a conversion by molar mass, not a printed value.

The target in one assay is T1, angiotensin II receptor (Bos taurus, UniProt P25104).
T1 construct: partially purified membrane fractions of bovine AGC using radioactive angiotensin II; from tissue; host or cells: bovine adrenal gland cortex, partially purified membrane fractions
T1 sequence (P25104 1-359): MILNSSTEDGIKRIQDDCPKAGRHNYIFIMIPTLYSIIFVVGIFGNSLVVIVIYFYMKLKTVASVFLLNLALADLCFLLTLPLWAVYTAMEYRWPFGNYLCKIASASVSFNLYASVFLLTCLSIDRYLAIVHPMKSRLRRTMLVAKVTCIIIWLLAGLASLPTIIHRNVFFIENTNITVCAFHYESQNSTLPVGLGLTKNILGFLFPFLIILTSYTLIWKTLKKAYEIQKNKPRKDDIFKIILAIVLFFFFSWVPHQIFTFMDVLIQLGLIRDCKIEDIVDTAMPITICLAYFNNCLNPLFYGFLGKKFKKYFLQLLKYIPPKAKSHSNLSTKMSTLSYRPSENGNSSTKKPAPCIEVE
As to the kind of experiment: Interaction with the angiotensin II receptor in membrane fractions of the adrenal gland cortex (bovine), 3H-angiotensin II binding. The following applies: 3H-angiotensin II 3-5 nM, 60 min at room temperature, read-out: Ki, specific binding of 3H-angiotensin II. The text has this:
Interaction of the compounds according to the invention with the angiotensin II receptor in membrane fractions of the adrenal gland cortex (bovine)
Bovine adrenal gland cortices (AGC), which have been freshly removed and carefully freed from gland medulla, are comminuted in sucrose solution (0.32M) with the aid of an Ultra-Turrax (Janke & Kunkel, Staufen i.B.) to give a coarse membrane homogenate and partially purified in two centrifugation steps to give membrane fractions. The receptor binding investigations are carried out on partially purified membrane fractions of bovine AGC using radioactive angiotensin II in an assay volume of 0.25 ml, which specifically contains the partially purified membranes (50-80 μg), ^3 H-angiotensin II (3-5 nM), test buffer solution (50 mM Tris, pH 7.2, 5 mM MgCl2) and the substances to be investigated. After an incubation time of 60 min at room temperature, the unbound radioactivity of the samples is separated by means of moistened glass fibre filters (Whatman GF/C) and the bound radioactivity is measured […] in a scintillation cocktail after washing the protein with ice-cold buffer solution (50 mM Tris/HCl, pH 7.4, 5% PEG 6000). The analysis of the raw data was carried out using computer programs to give Ki or IC50 values (Ki : IC50 values corrected for the radioactivity used; IC50 values: concentration at which the substance to be investigated causes a 50% inhibition of the specific binding of the radioligand).

The subject of assay [1] is isolated rabbit aorta rings; contraction induced by angiotensin II (AII). As to the kind of experiment: Inhibition of vascular contraction in isolated rabbit aorta rings induced by angiotensin II (AII). The class given is cell-based. The settings on record: Oryctolagus cuniculus; isolated rabbit aorta rings in vitro, 37° C.; based on 3rd = submaximal agonist concentration; read-out: IC50 against contractions induced by AII. The protocol:
Investigation of the inhibition of the contraction induced by agonists
Rabbits of either sex are stunned by a blow to the back of the head and bled out, or in some cases anaesthetised with Nembutal (about 60-80 mg/kg i.v.) and sacrificed by opening the thorax. The thorax aorta is removed, freed from adhering connective tissue, divided into ring segments 1.5 mm wide and individually transferred under an initial loading of about 3.5 g to 10 ml organ baths containing Krebs-Henseleit nutrient solution, which is temperature-controlled at 37° C. and aerated with 95% O2 /5% CO2, of the following composition: 119 mmol/l of NaCl; 2.5 mmol/l of CaCl2 ×2H2 O; 1.2 mmol/l of KH2 PO4; 10 mmol/l of glucose; 4.8 mmol/l of KCl; 1.4 mmol/l of MgSO4 ×7 H2 O and 25 mmol/l of NaHCO3.
The contractions are detected isometrically by Statham UC2 cells by means of bridge amplifiers (ifd Mulheim or DSM Aalen) and digitalised and assessed by means of A/D converters (System 570, Keithley Munich). Agonist dose response curves (DRC) are plotted hourly. With each DRC, 3 or 4 individual concentrations are applied to the baths at a 4 min interval. After the end of the DRC and subsequent washing-out cycles (16 times in each case about 5 sec/min with the abovementioned nutrient solution), a 28-minute rest or incubation phase follows, during which the contractions as a rule reach the starting value again.
The height of the 3rd DRC, in a normal case, is used as a reference variable for the assessment of the test substance to be investigated in further runs, which is applied to the baths in the following DRCs in increasing doses in each case at the start of the incubation period. Each aorta ring is in this case stimulated for the whole day, always with the same agonist.
Agonists and their standard concentrations (application
For the calculation of the IC50 (concentration at which the substance to be investigated causes a 50% inhibition), the effect is in each case based on the 3rd=submaximal agonist concentration.

The next assay concerns smooth muscle cells. As to the kind of experiment: Inhibition of the proliferation of smooth muscle cells (3H-thymidine incorporation). In kind it is cell-based, rats or pigs. The following applies: 10^-6 M, stimulated with AII, serum or other factors. The procedure: Investigation of the inhibition of the proliferation of smooth muscle cells by the compounds according to the invention
To determine the antiproliferative action of the compounds, smooth muscle cells are used which are obtained from aortas of rats or pigs by the media explant technique [R. Ross, J. Cell. Biol. 50, 172, 1971]. The cells are inoculated into suitable culture dishes, as a rule 24-hole plates, and cultured at 37° C. for 2-3 days in medium with addition of serum, 2 mmol L-glutamine and 15 mmol HEPES, pH 7.4 in 5% CO2. The cells are then synchronised by withdrawal of serum for 2-3 days and then stimulated into growth with AII, serum or other factors. Test compounds are simultaneously added. […]
For orientation: Uptake of a labelled nucleoside into DNA is a usual measure of proliferation.

In the case of `CCCCc1cc2ccccc2c(=O)n1Cc1ccc(-c2ccccc2-c2nnn[nH]2)cc1` [Example 2, 3-Butyl-2-{[2'-(tetrazol-5-yl)-biphenyl-4-yl]methyl}-isoquinolin-1(2H)-one], the Ki at angiotensin II receptor was found to be 42 nM. The IC50 in assay [1] stood at 0.23 µg/mL (≈ 0.528 µM).

On to `CCc1cc2ccccc2c(=O)n1Cc1ccc(-c2ccccc2-c2nnn[nH]2)cc1` [Example 4, 3-Ethyl-2-{[2'-(tetrazol-5-yl)-biphenyl-4-yl]methyl}-isoquinolin-1(2H)-one], for which the inhibition constant (Ki) at angiotensin II receptor amounted to 750 nM. The IC50 in assay [1] is 0.84 µg/mL (≈ 2.06 µM).

As to `O=c1c2ccccc2cc(-c2ccccc2)n1Cc1ccc(-c2ccccc2-c2nnn[nH]2)cc1` [Example 6, 3-Phenyl-2-{[2'-(tetrazol-5-yl)-biphenyl-4-yl]methyl}-isoquinolin-1(2H)-one], the Ki on angiotensin II receptor turned out to be 2000 nM. In addition, the IC50 in assay [1] is over 1 µg/mL. The inhibition at 1 µM in the assay with smooth muscle cells is 70%.

As usually defined, the Ki is a measure of affinity in units of concentration, obtained from inhibition or displacement. One may read the IC50 as the point on the concentration scale where inhibition reaches its midpoint. What is called inhibition is the relative decrease from the control value, in per cent. High values mean strong suppression, low ones little suppression.
